Entries after “also recorded” stand apart in the source; their conditions may differ.
What was measured:
Assay type in all cases: cell-based, human
PFC-like spheroids [1] = assay: FLIPR calcium activity profiling, compound addition (Examples 1-2); conditions: FLIPR recordings 1-, 30-, 70-min after compound (t1, t30, t70)
Experimental: (§1) To examine neuronal activity changes as a response to compound treatment, calcium activity was assessed using a Fluorescent Imaging Plate Reader (FLIPR) Penta (Molecular Devices). FLIPR Calcium 6 Assay kits were purchased from Molecular Devices (PN: R8190). On day of activity profiling, 96-well or 384-well ULA round bottom (black sides, clear bottom) plates containing spheroids were removed from incubator. Fresh FLIPR Calcium 6 dye was prepared by diluting each vial in 10 ml of freshly prepared, phenol-free complete spheroid maturation media and vortexed for 2 minutes. Half of the media was removed from each well (45 μl from 384-well plate wells, 100 ul from 96-well plate wells) and replaced with equal amounts freshly prepared FLIPR Calcium 6 dye, followed by a 2-hour incubation in the dark in a 37 C, 5% CO2 incubator. After 2-hours, plates were removed and kept at room temperature for 10 minutes, then imaged and calcium activity read using the Molecular Devices FLIPR Penta High-Throughput Cellular Screening System. The FLIPR incubator stage was pre-warmed to 37° C. approximately 30 minutes prior to imaging. Standard filter sets were used for Cal6 imaging (excitation 470-495 and emission 515-575 nm). FLIPR recordings were obtained with the camera in normal mode, and settings included: gain was set to 2.5, exposure time to 0.03 seconds, and excitation intensity to 50%. Fluorescent image reads were taken every 0.6 seconds for a total of 1000 reads over a total run time of 10 minutes. Four recordings total were captured: baseline activity, 1-min after compound treatment, 30- and 70-min after compound treatment.
(§2) After baseline activity, cell plates were removed from the FLIPR and transferred to a 384-well pin tool instrument. Prior to compound addition, the pin tool was subjected to 4 wash cycles exposing the pins to water, methanol, and DMSO each time. Compounds, including either “QC compounds” (compounds with known mechanism of action, listed in results) or the mu opioid receptor selective-agonist DAMGO, were transferred from a compound source plate to the 384-well spheroid plate. Immediately after compound transfer, the cell plate was placed back in the FLIPR for the recording that was 1-min after compound transfer to begin. After this 10-min recording, another recording was captured 30-min after compounds were transferred. After the 30-min recording, the plate was again removed from the FLIPR and transferred to the pin tool instrument. During this phase of compound transfer, naloxone was transferred to wells that received DAMGO during the first compound transfer. Following this second compound transfer, the cell plate was placed back in the FLIPR and a final recording was obtained 30-min later, and 70-min after the initial compound transfer.
(§3) The FLIPR software ScreenWorks PeakPro 2.0 was used for the initial analysis of calcium activity using automated peak detection settings. With these settings, average peak statistics over each 10-min recording for each well were exported from PeakPro to Microsoft Excel. ScreenWorks Peak Pro 2.0 software was used to extract 17 activity features describing different aspects of calcium activity profiles. These included peak amplitude (PkA), peak amplitude standard deviation (PkASD), peak count (PkCt), peak rate (measured as peaks per minute, PpM), peak rate SD, peak spacing (PkSp), peak spacing SD (PkSpSD), peak spacing regularity, area under the curve (AUC), AUC SD, peak rise slope, peak rise slope SD, peak rise time (PkRt), peak ride time SD (PkRtSD), peak decay slope, peak decay slope SD, peak decay time (PkDt), and peak decay time SD (PkDtSD). To assess variability of these peak parameters, percent coefficients of variance (CV) were calculated by dividing the standard deviation/mean and multiplying by 100 for each designer spheroid type, and those with % CV's […] 20% were removed from future analysis. […]

VTA-like spheroids [2] = assay: as above; conditions: FLIPR recordings 1-, 30-, 70-min after compound (t1, t30, t70)
Experimental: as §1, §2, §3

VTA-like spheroids [3] = assay: FLIPR calcium activity with Cal6 dye, control compounds / DAMGO (Example 3); conditions: VTA-like spheroids; recordings 1-, 30-, 60-min after treatment
Experimental: (§4) Viruses and dyes: To assess calcium activity, the calcium dye, Cal6 (Molecular Devices), and genetically encoded calcium indicator, GCaMP6f (Addgene, cat #100836-AAV9) were used. Cal6 was used according to manufacturer's instructions and 10 mL of maintenance media was added to each vial. Two hours before activity was recorded, half of the spheroid media was exchanged for media with Cal6. The plates were covered in foil and placed in the incubator at 37° C. during the 2-hour (hr) incubation period. Since all viruses used were adeno-associated viruses (AAV), they were added to the media on day 7 to allow for 2-weeks expression prior to recording or testing. All viruses were added to the media at 2e5 multiplicity of infection (MOI). GCaMP6f infection occurred via an adeno-associated virus serotype 9 (AAV9) expressed under the CAG promoter for expression in both neurons and astrocytes. Designer receptors exclusively activated by designer drugs (DREADDs) viruses were used to stimulate and inhibit neuronal activity within spheroids. Both viruses were retrograde AAVs expressed under the human Synapsin promoter for expression in neurons and fused with an mCherry fluorophore. The DREADDs viruses either inserted the designer receptor hM4D(Gi), an inhibitory G-protein coupled receptor, or hM3D(Gq), a stimulatory G-protein coupled receptor. Clozapine-N-oxide (CNO, Tocris cat #4936) was suspended in dimethyl sulfoxide (DMSO) and used as the designer drug to activate the DREADDs viruses. CNO was tested at 1 and 10 μM, with data reported from the 1 μM concentration.
(§5) Fluorescent Imaging plate Reader (FLIPR): The FLIPR Penta (Molecular Devices) was used to assess calcium fluorescence across the 384-well plate simultaneously and to observe changes after treatment with compounds. The evening before calcium activity was measured, plates were sealed with parafilm and centrifuged at 1485×g for 2-min to get spheroids to the bottom of the well in a centered position. On the day of recording, the plate used for recording was placed in the read plate position inside of the FLIPR following the 2-hour Cal6 incubation at 37° C. Standard filter sets were used for Cal6 imaging with excitation set at 470-495 and emission at 515-575 nm. Fluorescent image reads were taken every 0.6 seconds for all plates, with exposure time of 0.03 and 50% excitation intensity. Recordings from the initial seven plates consisted of 1000 reads and were 10-min recordings with 2.5 gain, while the final two plates consisted of 500 reads (5-min recordings) with a gain of 2. Baseline recordings were taken across all plates and, if applicable, more recordings were obtained 1-, 30-, 60-, and/or 90-min after compound treatment. In between recordings, plates were wrapped in foil and placed back in the incubator at 37° C.
DAMGO was reconstituted in water at a 1 mM concentration and diluted in media to 20 µM such that spheroids would be treated with a final concentration of 10 μM after the half media exchange. Two aspects of OUD were modeled, chronic treatment along with opioid withdrawal. […]
384 Pin Tool: A 384 well pin tool (Rexroth) was used to transfer compounds simultaneously to the spheroid plate. […] Compound transfer via the 384 well pin tool occurred after the baseline recordings with the fluorescent imaging plate reader (FLIPR). […]

PFC-like spheroids [4] = assay: FLIPR calcium activity with Cal6 dye, control compounds / DAMGO / AD compounds (Example 3); conditions: PFC-like spheroids; recordings 1-, 30-, 60-min after treatment
Experimental: as §4, §5
DAMGO was reconstituted in water at a 1 mM concentration and diluted in media to 20 µM such that spheroids would be treated with a final concentration of 10 μM after the half media exchange. Two aspects of OUD were modeled, chronic treatment along with opioid withdrawal. For spheroids subjected to chronic DAMGO treatment, 20 μM DAMGO in maintenance media was added via half media exchange beginning on day 10, with treatments occurring every other day for 10 days, giving a total of five treatments.
(§6) 384 Pin Tool: A 384 well pin tool (Rexroth) was used to transfer compounds simultaneously to the spheroid plate. Prior to compound transfer, the pin tool went through four wash cycles where pins were rinsed with dimethyl sulfoxide (DMSO), followed by methanol, then deionized (DI) water, to ensure the pins were clean. Compound transfer via the 384 well pin tool occurred after the baseline recordings with the fluorescent imaging plate reader (FLIPR). Here, 60 nL of compound suspended in DMSO was transferred to 60 µL of media in each well, diluting the compounds by 1000-fold and giving a final DMSO concentration of 0.1%.

APOE4 PFC-like spheroids = assay: Alzheimer's Disease model, FLIPR calcium activity after compound treatment; conditions: 90 min after treatment, Memantine 10 μM, Donepezil 1 & 10 uM, EUK-134 1 & 10 μM
Experimental: as §5
as §6, with “Here, 60 nL of compound suspended in DMSO was transferred to 60 µL of media in each well, diluting the compounds by 1000-fold and giving a final DMSO concentration of 0.1%.” left out
Calcium Activity Analysis: Calcium oscillatory peak detection data from FLIPR recordings was obtained through ScreenWorks 5.1 (Molecular Devices). […] There, percent coefficient of variance (% CV) was calculated within each plate to measure how variable each parameter exported was. […]

[5] = system: single neuron spheroids expressing hM3Dq or hM4Di; assay: Chemogenetic (DREADDs) activation with CNO, FLIPR calcium activity; conditions: 1 uM CNO
Experimental: Viruses and dyes: To assess calcium activity, the calcium dye, Cal6 (Molecular Devices), and genetically encoded calcium indicator, GCaMP6f (Addgene, cat #100836-AAV9) were used. Cal6 was used according to manufacturer's instructions and 10 mL of maintenance media was added to each vial. Two hours before activity was recorded, half of the spheroid media was exchanged for media with Cal6. The plates were covered in foil and placed in the incubator at 37° C. during the 2-hour (hr) incubation period. Since all viruses used were adeno-associated viruses (AAV), they were added to the media on day 7 to allow for 2-weeks expression prior to recording or testing. […]
Fluorescent Imaging plate Reader (FLIPR): The FLIPR Penta (Molecular Devices) was used to assess calcium fluorescence across the 384-well plate simultaneously and to observe changes after treatment with compounds. The evening before calcium activity was measured, plates were sealed with parafilm and centrifuged at 1485×g for 2-min to get spheroids to the bottom of the well in a centered position. On the day of recording, the plate used for recording was placed in the read plate position inside of the FLIPR following the 2-hour Cal6 incubation at 37° C. […] Fluorescent image reads were taken every 0.6 seconds for all plates, with exposure time of 0.03 and 50% excitation intensity. […]

Q: With NCc1cc(=O)[nH]o1 [Muscimol] as the compound, how does the “effect on calcium activity peak parameters compared to DMSO controls” value (PFC-like spheroids [1]) read?
A: total inhibition of calcium activity that lasted throughout the entire recording period

Q: And the “effect on calcium activity peak parameters compared to DMSO controls” value (VTA-like spheroids [2])?
A: total inhibition of calcium activity that lasted throughout the entire recording period

Q: And the “functional response (calcium activity peak parameters) to control compound” value (VTA-like spheroids [3])?
A: complete inhibition of activity that began immediately after treatment and persisted for at least 60-min

Q: And the “functional response (calcium activity peak parameters) to control compound” value (PFC-like spheroids [4])?
A: complete inhibition of activity that began immediately after treatment and persisted for at least 60-min

Q: COc1cccc(C=NCCN=Cc2cccc(OC)c2[O-])c1[O-].[Cl-].[Mn+3] [EUK-134] was tested. Which “reversal of APOE4-induced deficits in peak count and spacing” value (APOE4 PFC-like spheroids) did it give?
A: reverse deficits caused by APOE4 GABA neurons; also recorded: restore deficits in peak count

Q: CCN1CCCC1CNC(=O)c1cc(S(N)(=O)=O)ccc1OC (stereo not drawn) [Sulpiride] was tested. Which “effect on calcium activity peak parameters compared to DMSO controls” value (PFC-like spheroids [1]) did it give?
A: significantly increased PkCt and PpM while decreasing PkSp 70-min after treatment

Q: And the “effect on calcium activity peak parameters compared to DMSO controls” value (VTA-like spheroids [2])?
A: did not impact calcium activity, though there was a statistical trend toward significantly increasing PkCt 1-min after treatment

Q: What about the “functional response (calcium activity peak parameters) to control compound” value (VTA-like spheroids [3]) of the same compound?
A: no changes were observed in measures of peak frequency but increases in peak width and peak decay time were observed

Q: And the “functional response (calcium activity peak parameters) to control compound” value (PFC-like spheroids [4])?
A: increased peak count and rate while decreasing peak spacing

Q: What does the source list for CC12CC3CC(C)(C1)CC(N)(C3)C2 [Memantine]?
A: functional response (calcium activity peak parameters) to control compound (VTA-like spheroids [3]): increases in peak count and rate and decreases in peak amplitude; functional response (calcium activity peak parameters) to control compound (PFC-like spheroids [4]): increases in peak count and rate and decreases in peak amplitude; reversal of APOE4-induced deficits in peak count and spacing (APOE4 PFC-like spheroids): reverse deficits caused by APOE4 GABA neurons; also recorded: restore deficits in peak count

Q: What does the source list for C[N+]1([O-])CCN(C2=Nc3cc(Cl)ccc3Nc3ccccc32)CC1 [CNO, Clozapine-N-oxide]?
A: effect of chemogenetic activation on peak parameters ([5]; spheroids with Dopa or Gluta composition expressing hM3Dq): chemogenetic activation increased measures of peak frequency such as peak count and rate while reducing parameters such as peak spacing and peak width; effect of chemogenetic inhibition on peak parameters ([5]; spheroids with Dopa or Gluta composition expressing hM4Di): the opposite was observed for these spheroids subjected to chemogenetic inhibition

Q: For COc1cc2c(cc1OC)C(=O)C(CC1CCN(Cc3ccccc3)CC1)C2 (stereo not drawn) [Donepezil], which “reversal of APOE4-induced deficits in peak count and spacing” value (APOE4 PFC-like spheroids) is on record?
A: reverse deficits caused by APOE4 GABA neurons; also recorded: restore deficits in peak count
